Data taken from patent US9469630B2, “Sustained-release formulation for injection” (SUMITOMO DAINIPPON PHARMA CO., LTD., priority 2010, dated 2016).

Experiment: Solubility in water
Type: physicochemical

solubility in water: low
SMILES: Cl.O=C1[C@@H]2[C@H]3CC[C@H](C3)[C@@H]2C(=O)N1C[C@@H]1CCCC[C@H]1CN1CCN(c2nsc3ccccc23)CC1 [Compound 1, N-[4-[4-(1,2-benzisothiazol-3-yl)-1-piperazinyl]-(2R,3R)-2,3-tetramethylene-butyl]-(1′R,2′S,3′R,4′S)-2,3-bicyclo[2,2,1]heptanedicarboximide hydrochloride]
